Values of other authors in paper PMC8308777, “Small Molecule–Peptide Conjugates as Dimerization Inhibitors of Leishmania infantum Trypanothione Disulfide Reductase” (Pharmaceuticals, 2021).

Target: T1, Leishmania infantum trypanothione disulfide reductase (LiTryR) (Leishmania infantum, UniProt A4HSF7)
T1 construct: HIS; made in house; host or cells: E. coli BL21 (DE3) Rossetta 2
Conditions: earlier work of the authors; cited from earlier work
From the text: Considering that the biologically functional form of TryR is a homodimer, in 2013, we devised an alternative inhibition strategy aimed at disrupting the protein–protein interactions at the homodimer interface of Leishmania infantum TryR (LiTryR). Thus, by combining molecular modeling and site-directed mutagenesis studies, we identified and validated, for the first time, Glu436 (located at an interfacial α-helix spanning from Pro435 to Met447) as a “hotspot” for LiTryR homodimer stabilization. As a “proof of concept”, we designed and tested a small library of linear peptides [[22] ...

T1 sequence (A4HSF7 entry or part of it): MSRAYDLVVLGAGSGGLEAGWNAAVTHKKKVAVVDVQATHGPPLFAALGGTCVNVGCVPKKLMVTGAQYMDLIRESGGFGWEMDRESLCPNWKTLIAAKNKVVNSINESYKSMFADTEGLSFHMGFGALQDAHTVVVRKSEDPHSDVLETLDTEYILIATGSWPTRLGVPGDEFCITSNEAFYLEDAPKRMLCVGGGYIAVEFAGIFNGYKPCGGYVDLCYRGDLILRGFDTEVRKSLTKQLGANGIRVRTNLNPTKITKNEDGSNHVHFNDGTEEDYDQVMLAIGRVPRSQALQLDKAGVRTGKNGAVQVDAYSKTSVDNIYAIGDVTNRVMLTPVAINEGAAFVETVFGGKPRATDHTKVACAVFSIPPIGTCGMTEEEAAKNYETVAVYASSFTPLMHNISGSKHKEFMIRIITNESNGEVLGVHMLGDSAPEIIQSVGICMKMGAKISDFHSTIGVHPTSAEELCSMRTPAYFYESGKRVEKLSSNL

Substance: Ac-PKIIQSVGISMKM-NH2 [TRL35, Nα-acetylated 13-mer peptide, earlier LiTryR dimerization disruptor]
- inhibition of the oxidoreductase activity of LiTryR: submicromolar range
